Source: patent US10131681B2, “Aminophosphinic derivatives that can be used in the treatment of pain” (PHARMALEADS, priority 2008, dated 2018)

What was measured:
[1] = system: OF1 male mice; test: Von Frey test, mechanical allodynia after partial ligation of the sciatic nerve; type: in vivo
Procedure: (§1) This test was described in detail by A. B. Malmberg and A. I. Basbaum, Partial Sciatic nerve injury in the mouse as a model of neuropathic pain: behavioural and neuroanatomical correlates. Pain, (1998) 76, 215-222.
(§2) It was performed on OF1 male mice (Charles River, n=39), weighing 18 to 20 g, by partial ligation of the sciatic nerve on the ipsilateral side. The animals are tested over a period of 3 to 26 days after the operation.
The mechanical allodynia is measured as described by S. R. Chaplan et al., Quantitative assessment of tactile allodynia in the rat paw, J. Neurosci. Meth. (1994), 53, 55-63. The ipsilateral (lesion) and contralateral (control) paws are tested as above, the mechanical anti-allodynia effect being measured using the Von Frey method (Malmerg A. B. and Basbaum A. I., 1998, Pain, 76, 215-222) with filaments of increasing size likewise applying an increasing pressure.

[2] = system: OF1 male mice; test: Plantar test, thermal hyperalgesia after partial ligation of the sciatic nerve; type: in vivo; settings: 50 mg/kg oral
Procedure: as §1, §2
The hyperalgesia was measured according to the method described by K. Hargreaves et al., A new sensitive method for measuring thermal nociception in cutaneous hyperalgesia, Pain (1988), 32, 77-88, using the “Plantar test” device (Bioseb, France) as the heat source. The intensity of the nociceptive stimulus is calibrated at 8-10 s with an automatic cut-off time of 20 seconds. The mean heat-induced paw withdrawal was measured on the ipsilateral (damaged nerve) and contralateral (intact nerve) paws. Each measurement is made 3 times on each paw.

[3] = system: OF1 male mice; test: Formalin test (phase I), paw licking after oral administration; type: in vivo
Procedure: A/ Formalin Test (Phase I)
The molecules were studied at one time (90 min) for comparative tests and at two times, 90 and 150 minutes, so as to observe the period of action thereof.
The animals (OF1 male mice) were obtained from the Charles River breeding centre (France) and weighed […] at the start of the experiment. The weight of each mouse is taken into account for the administration of the product.
The test is based on the protocol described by S. HUNSKAAR et al., Formalin test in mice, a useful technique for evaluating mild analgesics, J. Neurosci. Methods (1995), 14, 69-75. The early part of the test ([…] after injecting formalin), is considered to reflect […], which is under study.
The mice (n=8) are placed individually in a transparent container (50×25 cm^2) and are acclimatised to this environment for 20 minutes. […] Each mouse is then immediately returned to the test container and pain (nociceptive) responses are measured for 5 minutes (early phase). Only the number of times the paw is licked is counted. […]
The analgesic action of the product is measured by the decline in the number of times the injured paw is licked, compared to the number of times the animal receiving the vehicle only licks its paw. The total (discontinuous) licking time, expressed in seconds for each mouse, is counted for […]. […]

[4] = Stability in solution of a prior art pro-drug in a parenteral vehicle, followed by HPLC; type: physicochemical; settings: ethanol/cremophor/H2O mixture (1:1:8)
Procedure: The study in solution of a compound according to the prior art was conducted as follows:
The compound according to the prior art is placed in solution in various mixtures used for parenteral administration, the solution subsequently being followed by HPLC (Kromasil C18 4.5*250 mm column, 50% CH3CN (0.1% TFA)/50% H2O (0.1% TFA)) to determine the composition of the solution. In any case, the formation of both products, free phosphonic acid (active compound) and the transfer product, is observed over time as illustrated in the diagram below: […]

Q: Which “time of peak anti-allodynia effect” value ([1]; 50 mg/kg oral) does the source give for `CC(OC(=O)N[C@@H](C)P(=O)(O)C[C@@H](Cc1ccc(-c2ccccc2)cc1)C(=O)N[C@@H](C)C(=O)OCc1ccccc1)OC(=O)C(C)C` (some centres unmarked) [Example 3, 2-(2-biphenyl-4-ylmethyl-3-{hydroxy-[1-(1-isobutyryloxy-ethoxycarbonylamino)-ethyl]-phosphinoyl}-propionylamino)-propionic acid benzyl ester] here?
A: 60 min

Q: What about the long-term anti-allodynia effect ([1]; 50 mg/kg oral, 45-120 min) of the same molecule?
A: significant

Q: And the “anti-allodynia effect at peak, % of the peak response (untreated control)” value ([1]; 50 mg/kg oral, 60 min)?
A: 75%

Q: And the “time of peak anti-hyperalgesia effect” value [2]?
A: 90 min

Q: And the “paw withdrawal, mean of contralateral paws” value ([2]; 90 min, 14 days after surgery, contralateral paw)?
A: 9.4 s

Q: What about the “reduction in thermal hyperalgesia” value ([2]; period 45-120 min, ipsilateral paw) of the same molecule?
A: 65-100%

Q: For `CC(OC(=O)N[C@@H](C)P(=O)(O)C[C@@H](Cc1ccc(-c2ccccc2)cc1)C(=O)N[C@@H](C)C(=O)O)OC(=O)C(C)C` (some centres unmarked) [Example 4, 2-(2-biphenyl-4-ylmethyl-3-{hydroxy-[1-(1-isobutyryloxy-ethyloxycarbonylamino)-ethyl]-phosphinoyl}-propionylamino)-propionic acid], which “anti-allodynia effect used alone” value ([1]; 10 mg/kg oral, 60 min) is on record?
A: inactive

Q: For `CCOC(=O)OC(C)OC(=O)[C@H](C)NC(=O)[C@H](Cc1ccc(-c2ccccc2)cc1)CP(=O)(O)[C@H](C)N.O=CO` (some centres unmarked) [reference molecule, reference compound], which “analgesic activity at 90 minutes” value ([3]; 100 mg/kg per os) is on record?
A: no activity

Q: What does the source list for `CCOC(=O)[C@H](C)NC(=O)[C@H](Cc1ccc(-c2ccccc2)cc1)CP(=O)(OC(C)OC(=O)C(C)C)[C@H](C)N` (some centres unmarked) [prior art compound]?
A: % initial compound ([4]; 0 hrs after solubilisation): 90.5%; % initial compound ([4]; 3 hrs after solubilisation): 82.0%; % initial compound ([4]; 6 hrs after solubilisation): 75.7%; % initial compound ([4]; 96 hrs after solubilisation): 25.1%

Q: Which “analgesic activity at 90 minutes” value ([3]; 50 mg/kg per os) does the source give for `CCOC(=O)OC(C)OC(=O)[C@H](C)NC(=O)[C@H](Cc1ccc(-c2ccccc2)cc1)CP(=O)(O)[C@H](C)NC(=O)OC(C)OC(=O)C(C)C` (some centres unmarked) [Example 8, 2-(2-biphenyl-4-ylmethyl-3-{hydroxy-[1-(1-isobutyryloxy-ethoxycarbonylamino)-ethyl]-phosphinoyl}-propionylamino)-propionic acid 1-ethoxycarbonyloxyethyl ester] here?
A: very significant analgesic activity

Q: Which “anti-allodynia effect used alone” value ([1]; 30 mg/kg oral, 60 min) does the source give for `NCC1(CC(=O)O)CCCCC1` [gabapentin, reference compound] here?
A: inactive
